Measured values as given in ChEMBL document CHEMBL1128492, “Effect of lipophilicity at N-1 on activity of fluoroquinolones against mycobacteria” (J Med Chem, 1995).
In brackets after ≈: the same amount, converted by molar mass.

How the values were obtained:
[1] = test system: Mycolicibacterium smegmatis; test: Minimum inhibitory concentration against Mycobacterium smegmatis; format: functional
[2] = test system: Streptococcus pyogenes; test: Minimum inhibitory concentration against gram-positive Streptococcus pyogenes C203 (SP1-1); format: functional
[3] = test system: Escherichia coli; test: Minimum inhibitory concentration against gram-negative Escherichia coli Vogel (EC-1); format: functional
[4] = test system: Pseudomonas aeruginosa; test: Minimum inhibitory concentration against gram-negative Pseudomonas aeruginosa U1-18 (PA-7); format: functional
[5] = Dissociation constant (pKa2)
[6] = Dissociation constant (pKa1)
[7] = test system: Mycolicibacterium fortuitum; test: Minimum inhibitory concentration against Mycobacterium fortuitum; format: functional
[8] = test system: Staphylococcus aureus; test: Minimum inhibitory concentration against gram-positive Staphylococcus aureus H-228 (SA-13); format: functional

| Structure (SMILES) | MIC [1] | MIC [2] | MIC [3] | MIC [4] | pKa [5] | pKa [6] | MIC [7] | MIC [8] |
| --- | --- | --- | --- | --- | --- | --- | --- | --- |
| Cc1ccccc1-n1cc(C(=O)O)c(=O)c2cc(F)c(N3CCNCC3)cc21 | 8 µg/mL (≈ 21 µM) | > 3.1 µg/mL | 0.4 µg/mL (≈ 1.05 µM) | 1.6 µg/mL (≈ 4.19 µM) | 8.59 | 5.98 | 4 µg/mL (≈ 10.5 µM) | 3.1 µg/mL (≈ 8.13 µM) |
| Cc1c(F)ccc(-n2cc(C(=O)O)c(=O)c3cc(F)c(N4CC(C)NC(C)C4)cc32)c1F (configuration not stated) | 4 µg/mL (≈ 8.98 µM) | > 3.1 µg/mL | 3.1 µg/mL (≈ 6.96 µM) | > 3.1 µg/mL | 8.47 | 5.94 | 1 µg/mL (≈ 2.24 µM) | 1.6 µg/mL (≈ 3.59 µM) |
| CC1CN(c2cc3c(cc2F)c(=O)c(C(=O)O)cn3-c2ccc(Cl)cc2Cl)CC(C)N1 (configuration not stated) | 4 µg/mL (≈ 8.61 µM) | > 3.1 µg/mL | 1.6 µg/mL (≈ 3.45 µM) | > 3.1 µg/mL | 8.37 | 5.75 | 2 µg/mL (≈ 4.31 µM) | > 3.1 µg/mL |
| Cc1ccc(-n2cc(C(=O)O)c(=O)c3cc(F)c(N4CC(C)NC(C)C4)cc32)c(C)c1 (configuration not stated) | 16 µg/mL (≈ 37.8 µM) | > 3.1 µg/mL | 3.1 µg/mL (≈ 7.32 µM) | > 3.1 µg/mL | 8.24 | 6.05 | 4 µg/mL (≈ 9.45 µM) | > 3.1 µg/mL |
| Cc1ccc(-n2cc(C(=O)O)c(=O)c3cc(F)c(N4CCNCC4)cc32)c(F)c1 | 2 µg/mL (≈ 5.01 µM) | 3.1 µg/mL (≈ 7.76 µM) | 0.2 µg/mL (≈ 0.501 µM) | 1.6 µg/mL (≈ 4.01 µM) | 8.34 | 5.96 | 1 µg/mL (≈ 2.5 µM) | 1.6 µg/mL (≈ 4.01 µM) |
| O=C(O)c1cn(-c2ccc(Cl)cc2Cl)c2cc(N3CCNCC3)c(F)cc2c1=O | 4 µg/mL (≈ 9.17 µM) | > 3.1 µg/mL | 0.4 µg/mL (≈ 0.917 µM) | 3.1 µg/mL (≈ 7.11 µM) |  |  | 2 µg/mL (≈ 4.58 µM) | > 3.1 µg/mL |
| O=C(O)c1cn(-c2ccccc2F)c2cc(N3CCNCC3)c(F)cc2c1=O | 2 µg/mL (≈ 5.19 µM) | 1.6 µg/mL (≈ 4.15 µM) | 0.1 µg/mL (≈ 0.259 µM) | 0.8 µg/mL (≈ 2.08 µM) |  |  | 0.25 µg/mL (≈ 0.649 µM) | 0.8 µg/mL (≈ 2.08 µM) |
| O=C(O)c1cn(-c2ccc(F)cc2F)c2cc(N3CCNCC3)c(F)cc2c1=O | 0.5 µg/mL (≈ 1.24 µM) | 0.4 µg/mL (≈ 0.992 µM) | 0.1 µg/mL (≈ 0.248 µM) | 0.2 µg/mL (≈ 0.496 µM) | 8.31 | 5.87 | 0.25 µg/mL (≈ 0.62 µM) | 0.4 µg/mL (≈ 0.992 µM) |
| Cc1ccc(-n2cc(C(=O)O)c(=O)c3cc(F)c(N4CCNCC4)cc32)c(C)c1 | 32 µg/mL (≈ 80.9 µM) | > 3.1 µg/mL | 0.8 µg/mL (≈ 2.02 µM) | 3.1 µg/mL (≈ 7.84 µM) |  |  | 16 µg/mL (≈ 40.5 µM) | > 3.1 µg/mL |
| Cc1c(F)ccc(-n2cc(C(=O)O)c(=O)c3cc(F)c(N4CCNCC4)cc32)c1F | 8 µg/mL (≈ 19.2 µM) | 3.1 µg/mL (≈ 7.43 µM) | 0.8 µg/mL (≈ 1.92 µM) | 3.1 µg/mL (≈ 7.43 µM) | 8.54 | 5.87 | 0.5 µg/mL (≈ 1.2 µM) | 1.6 µg/mL (≈ 3.83 µM) |
| O=C(O)c1cn(-c2ccccc2)c2cc(N3CCNCC3)c(F)cc2c1=O | 2 µg/mL (≈ 5.44 µM) | 3.1 µg/mL (≈ 8.44 µM) | 0.1 µg/mL (≈ 0.272 µM) | 0.8 µg/mL (≈ 2.18 µM) |  |  | 0.5 µg/mL (≈ 1.36 µM) | 0.8 µg/mL (≈ 2.18 µM) |
| Cc1ccc(-n2cc(C(=O)O)c(=O)c3cc(F)c(N4CCNCC4)cc32)cc1 | 4 µg/mL (≈ 10.5 µM) | > 3.1 µg/mL | 0.4 µg/mL (≈ 1.05 µM) | 1.6 µg/mL (≈ 4.19 µM) |  |  | 2 µg/mL (≈ 5.24 µM) | 3.1 µg/mL (≈ 8.13 µM) |
| Cc1cc(F)ccc1-n1cc(C(=O)O)c(=O)c2cc(F)c(N3CCNCC3)cc21 | 4 µg/mL (≈ 10 µM) | 1.6 µg/mL (≈ 4.01 µM) | 0.2 µg/mL (≈ 0.501 µM) | 0.4 µg/mL (≈ 1 µM) | 8.37 | 6.11 | 1 µg/mL (≈ 2.5 µM) | 0.8 µg/mL (≈ 2 µM) |
| O=C(O)c1cn(C2CC2)c2cc(N3CCNCC3)c(F)cc2c1=O [CIPROFLOXACIN] | 0.25 µg/mL (≈ 0.754 µM) | 0.4 µg/mL (≈ 1.21 µM) |  | 0.2 µg/mL (≈ 0.604 µM) |  |  | 0.06 µg/mL (≈ 0.181 µM) |  |
| O=C(O)c1cn(-c2ccc(F)cc2)c2cc(N3CCNCC3)c(F)cc2c1=O [SARAFLOXACIN] | 1 µg/mL (≈ 2.59 µM) | 0.4 µg/mL (≈ 1.04 µM) | 0.1 µg/mL (≈ 0.259 µM) | 0.2 µg/mL (≈ 0.519 µM) | 8.59 | 6.02 | 0.25 µg/mL (≈ 0.649 µM) | 0.4 µg/mL (≈ 1.04 µM) |
| C[C@@H]1CN(c2c(F)c(N)c3c(=O)c(C(=O)O)cn(C4CC4)c3c2F)C[C@H](C)N1 [SPARFLOXACIN] | 0.13 µg/mL (≈ 0.331 µM) | 0.1 µg/mL (≈ 0.255 µM) | 0.025 µg/mL (≈ 0.0637 µM) | 0.8 µg/mL (≈ 2.04 µM) |  |  | 0.06 µg/mL (≈ 0.153 µM) | 0.05 µg/mL (≈ 0.127 µM) |

Now from value to molecule:

| MIC [1] | MIC [2] | MIC [3] | MIC [4] | pKa [5] | pKa [6] | MIC [7] | MIC [8] | Structure (SMILES) |
| --- | --- | --- | --- | --- | --- | --- | --- | --- |
| 8 µg/mL (≈ 19.5 µM) | > 3.1 µg/mL | 1.6 µg/mL (≈ 3.91 µM) | > 3.1 µg/mL | 8.55 | 6.01 | 1 µg/mL (≈ 2.44 µM) | > 3.1 µg/mL | Cc1ccccc1-n1cc(C(=O)O)c(=O)c2cc(F)c(N3CC(C)NC(C)C3)cc21 (configuration not stated) |
| 4 µg/mL (≈ 10.1 µM) | 3.1 µg/mL (≈ 7.84 µM) | 0.4 µg/mL (≈ 1.01 µM) | 1.6 µg/mL (≈ 4.05 µM) | 8.58 | 6.12 | 2 µg/mL (≈ 5.06 µM) | 1.6 µg/mL (≈ 4.05 µM) | CC1CN(c2cc3c(cc2F)c(=O)c(C(=O)O)cn3-c2ccccc2)CC(C)N1 (configuration not stated) |
| 1 µg/mL (≈ 2.42 µM) | 0.8 µg/mL (≈ 1.94 µM) | 0.2 µg/mL (≈ 0.484 µM) | 0.8 µg/mL (≈ 1.94 µM) |  |  | 0.25 µg/mL (≈ 0.605 µM) | 0.4 µg/mL (≈ 0.968 µM) | CC1CN(c2cc3c(cc2F)c(=O)c(C(=O)O)cn3-c2ccc(F)cc2)CC(C)N1 (configuration not stated) |
| 2 µg/mL (≈ 4.68 µM) | > 3.1 µg/mL | 0.4 µg/mL (≈ 0.936 µM) | 1.6 µg/mL (≈ 3.74 µM) | 8.16 | 6.16 | 2 µg/mL (≈ 4.68 µM) | 1.6 µg/mL (≈ 3.74 µM) | Cc1cc(F)ccc1-n1cc(C(=O)O)c(=O)c2cc(F)c(N3CC(C)NC(C)C3)cc21 (configuration not stated) |
| 2 µg/mL (≈ 4.84 µM) | 3.1 µg/mL (≈ 7.5 µM) | 0.4 µg/mL (≈ 0.968 µM) | 1.6 µg/mL (≈ 3.87 µM) | 8.51 | 5.88 | 0.5 µg/mL (≈ 1.21 µM) | 1.6 µg/mL (≈ 3.87 µM) | CC1CN(c2cc3c(cc2F)c(=O)c(C(=O)O)cn3-c2ccccc2F)CC(C)N1 (configuration not stated) |
| 2 µg/mL (≈ 4.68 µM) | > 3.1 µg/mL | 0.8 µg/mL (≈ 1.87 µM) | 3.1 µg/mL (≈ 7.25 µM) |  |  | 1 µg/mL (≈ 2.34 µM) | 3.1 µg/mL (≈ 7.25 µM) | Cc1ccc(-n2cc(C(=O)O)c(=O)c3cc(F)c(N4CC(C)NC(C)C4)cc32)c(F)c1 (configuration not stated) |
| 0.5 µg/mL (≈ 1.16 µM) | 0.8 µg/mL (≈ 1.85 µM) | 0.4 µg/mL (≈ 0.927 µM) | 0.8 µg/mL (≈ 1.85 µM) | 8.26 | 5.94 | 0.25 µg/mL (≈ 0.579 µM) | 0.4 µg/mL (≈ 0.927 µM) | CC1CN(c2cc3c(cc2F)c(=O)c(C(=O)O)cn3-c2ccc(F)cc2F)CC(C)N1 (configuration not stated) |
| 4 µg/mL (≈ 9.77 µM) | > 3.1 µg/mL | 0.8 µg/mL (≈ 1.95 µM) | 3.1 µg/mL (≈ 7.57 µM) | 8.61 | 6.1 | 1 µg/mL (≈ 2.44 µM) | 3.1 µg/mL (≈ 7.57 µM) | Cc1ccc(-n2cc(C(=O)O)c(=O)c3cc(F)c(N4CC(C)NC(C)C4)cc32)cc1 (configuration not stated) |
